The target of assay [1] is T1, ALK-wt (Homo sapiens, UniProt Q9UM73).
T1 construct: purchased Carna 08-518
Nature of the assay: Biochemical kinase assay, ALK-wt kinase domain. To be noted: apparent inhibitory constant, Morrison equation; ATP 2 mM in substrate solution; read-out: ALK-wt Ki^app. The procedure, abridged: (§1)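 Compound in DMSO added first, then substrate solution (ATP 2 mM; AQT0101 or AQT0104, 26 μM; pH 7.5 HEPES, 10 mM MgCl2), then kinase solution with enzyme at 0.5–3 nM depending on construct. Kinetic read every 2 min for 120 min at 30° C; Ki^app by Morrison regression.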

In assay [2] the target is T2, TRKA-wt (Homo sapiens, UniProt P04629).
T2 construct: or TRKA-wt (1 nM, BPS Bio, 40280) kinase domains in buffer; purchased BPS Bio 40280
Nature of the assay: Biochemical kinase assay, TRKA-wt kinase domain. To be noted: apparent inhibitory constant, Morrison equation; ATP 2 mM in substrate solution; read-out: TRKA-wt Ki^app. The procedure, abridged:
as §1

Assay [3] has as its target T3, ROS1-G2032R (Homo sapiens, UniProt P08922, G2032R).
T3 construct: purchased SignalChem R14-12BG
Briefly: Biochemical kinase assay, ROS1-G2032R kinase domain. To be noted: apparent inhibitory constant, Morrison equation; ATP 2 mM in substrate solution; read-out: ROS1-G2032R Ki^app. Summed up:
(§2)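 Kinetic read: 485 nm, 2-min intervals, 120 min, 30 °C. Substrate mix — ATP 2 mM, AQT0101 26 μM, HEPES 50 mM pH 7.5, MgCl2 10 mM. Output: Ki^app, Morrison equation.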

The target in assay [4] is T4, Ba/F3 cells CD74-ROS1 G2032R (Homo sapiens, UniProt P08922, G2032R).
T4 construct: fusion of the C-terminus of ROS1 with the N-terminus of various partner proteins; host or cells: Ba/F3 (RIKEN), retroviral pMSCV-puro; the other entry of the earlier key: CD74 (P04233, HLA class II histocompatibility antigen gamma chain)
Nature of the assay: Ba/F3 cell proliferation assay, CD74-ROS1 G2032R. To be noted: 72 hours, CellTiter-Glo. The class given is cell-based. Summed up: (§3)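 IL-3-independent Ba/F3 CD74-ROS1 lines, puromycin-selected monoclones; 1,000 cells/well, plated 1 d before dosing; 3-fold serial dilutions, 72 h; CellTiter-Glo luminescence; IC50 by 4-parameter logistic regression.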

Assay [5] deals with T5, Ba/F3 cells EML4-ALK wt (variant 1) (Homo sapiens, UniProt Q9UM73).
T5 construct: echinoderm microtubule-associated protein-like 4 (EML4) gene and the ALK tyrosine kinase domain; host or cells: Ba/F3 (RIKEN), retroviral pMSCV-puro; the other entry of the earlier key: EML4 (Q9HC35, Echinoderm microtubule-associated protein-like 4)
Nature of the assay: Ba/F3 cell proliferation assay, EML4-ALK wt (variant 1). The class given is cell-based. To be noted: 72 hours, CellTiter-Glo. Summed up:
(§4)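 IL-3-independent Ba/F3 monoclones, puromycin-selected, transduced with fusion genes; 1,000 cells/well, 1 day rest, 3-fold compound series, 72 h. Read: CellTiter-Glo luminescence. IC50 from % inhibition vs concentration, 4-parameter logistic.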
Background: In ATP-based viability assays light output follows the ATP content of the culture.

For assay [6], the target named is T6, Ba/F3 cells TPM3-TRKA (Homo sapiens, UniProt P04629).
T6 construct: host or cells: Ba/F3 (RIKEN), retroviral pMSCV-puro; the other entry of the earlier key: TPM3 (P06753, Tropomyosin alpha-3 chain)
Briefly: Ba/F3 cell proliferation assay, TPM3-TRKA. In kind it is cell-based. To be noted: 72 hours, CellTiter-Glo, read-out: TPM3-NTRK1-wt IC50. Summed up:
as §4

Assay [7] has as its target T7, Ba/F3 cells EML4-ALK L1196M/G1202R (variant 1) (Homo sapiens, UniProt Q9UM73, G1202R/L1196M).
T7 construct: echinoderm microtubule-associated protein-like 4 (EML4) gene and the ALK tyrosine kinase domain; host or cells: Ba/F3 (RIKEN), retroviral pMSCV-puro; the other entry of the earlier key: EML4 (Q9HC35, Echinoderm microtubule-associated protein-like 4)
Nature of the assay: Ba/F3 cell proliferation assay, EML4-ALK L1196M/G1202R (variant 1). The class given is cell-based. To be noted: 72 hours, CellTiter-Glo. Summed up:
as §4

The target in assay [8] is T8, ROS1-wt (Homo sapiens, UniProt P08922).
T8 construct: purchased Carna 08-163
Briefly: Biochemical kinase assay, ROS1-wt kinase domain. To be noted: apparent inhibitory constant, Morrison equation; ATP 2 mM in substrate solution; read-out: ROS1-wt Ki^app. The procedure, abridged: as §2

The subject of assay [9] is TPM3-NTRK1-wt IC50 / primary target IC50 (e.g. CD74-ROS1-wt). Nature of the assay: TRKA selectivity in Ba/F3 cells (TRKA potency divided by primary target potency). In kind it is cell-based. To be noted: for TPM3-NTRK1-wt/CD74-ROS1-G2032R selectivity ratio: TRKA potency / CD74-ROS1-G2032R potency; for TPM3-NTRK1-wt/CD74-ROS1-wt selectivity ratio: TRKA potency / CD74-ROS1-wt potency; for TPM3-NTRK1-wt/EML4-ALK-L1196M-G1202R selectivity ratio: TRKA potency / EML4-ALK-L1196M-G1202R potency; for TPM3-NTRK1-wt/EML4-ALK-wt selectivity ratio: TRKA potency / EML4-ALK-wt potency. Here is the method:
TRKA selectivity was calculated by dividing a compound's TRKA potency by its primary target potency (e.g. TPM3-NTRK1-wt IC50/CD74-ROS1-wt IC50). Compound selectivity can be interpreted by binning ratio values: bin A for very high selectivity, ratio >30-fold; bin B for high selectivity, ratio >10-fold; bin C for moderate selectivity, ratio ≥1; and bin D for low selectivity, ratio <1. […] (nd=not determined).

The target of assay [10] is T9, Ba/F3 cells CD74-ROS1 wild-type (wt) (Homo sapiens, UniProt P08922).
T9 construct: fusion of the C-terminus of ROS1 with the N-terminus of various partner proteins; host or cells: Ba/F3 (RIKEN), retroviral pMSCV-puro; the other entry of the earlier key: CD74 (P04233, HLA class II histocompatibility antigen gamma chain)
Nature of the assay: Ba/F3 cell proliferation assay, CD74-ROS1 wild-type. In kind it is cell-based. To be noted: 72 hours, CellTiter-Glo. The procedure, abridged:
as §3

Assay [11] has as its target T10, ALK L1196M/G1202R (Homo sapiens, UniProt Q9UM73, G1202R/L1196M).
T10 construct: purchased SignalChem A19-12NG
Nature of the assay: Biochemical kinase assay, ALK L1196M/G1202R kinase domain. To be noted: apparent inhibitory constant, Morrison equation; ATP 2 mM in substrate solution; read-out: ALK-L1196M-G1202R Ki^app. Summed up: as §1

T7 sequence (Q9UM73 with tags, fused parts or gaps L1196M/G1202R): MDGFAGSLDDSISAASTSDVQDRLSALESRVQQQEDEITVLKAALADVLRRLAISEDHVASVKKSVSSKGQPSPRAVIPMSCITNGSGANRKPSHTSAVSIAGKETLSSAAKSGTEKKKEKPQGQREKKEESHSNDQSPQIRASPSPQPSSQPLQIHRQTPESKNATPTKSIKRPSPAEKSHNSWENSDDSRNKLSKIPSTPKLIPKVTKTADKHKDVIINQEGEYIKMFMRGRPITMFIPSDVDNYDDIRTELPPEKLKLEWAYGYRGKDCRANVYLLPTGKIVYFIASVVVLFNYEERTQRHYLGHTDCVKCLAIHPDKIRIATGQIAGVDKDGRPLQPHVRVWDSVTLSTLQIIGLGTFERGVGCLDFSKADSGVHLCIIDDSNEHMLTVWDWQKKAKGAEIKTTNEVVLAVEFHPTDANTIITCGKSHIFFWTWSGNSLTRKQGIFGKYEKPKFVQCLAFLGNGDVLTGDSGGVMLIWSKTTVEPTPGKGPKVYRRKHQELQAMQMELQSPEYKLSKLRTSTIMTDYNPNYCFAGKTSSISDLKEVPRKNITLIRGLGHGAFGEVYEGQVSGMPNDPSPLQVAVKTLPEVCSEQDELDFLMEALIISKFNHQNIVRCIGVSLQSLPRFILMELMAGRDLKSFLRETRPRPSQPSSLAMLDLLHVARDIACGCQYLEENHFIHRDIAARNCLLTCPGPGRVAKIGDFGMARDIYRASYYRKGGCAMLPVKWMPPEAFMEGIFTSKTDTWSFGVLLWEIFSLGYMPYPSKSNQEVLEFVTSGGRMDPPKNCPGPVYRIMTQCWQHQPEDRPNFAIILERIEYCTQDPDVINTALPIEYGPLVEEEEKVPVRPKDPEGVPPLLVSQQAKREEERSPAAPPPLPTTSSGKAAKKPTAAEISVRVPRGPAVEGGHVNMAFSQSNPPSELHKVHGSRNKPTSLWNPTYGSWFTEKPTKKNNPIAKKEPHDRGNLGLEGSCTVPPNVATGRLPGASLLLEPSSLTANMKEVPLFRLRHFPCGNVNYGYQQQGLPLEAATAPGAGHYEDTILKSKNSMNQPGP
T1 sequence (Q9UM73 1116-1392 limits assumed): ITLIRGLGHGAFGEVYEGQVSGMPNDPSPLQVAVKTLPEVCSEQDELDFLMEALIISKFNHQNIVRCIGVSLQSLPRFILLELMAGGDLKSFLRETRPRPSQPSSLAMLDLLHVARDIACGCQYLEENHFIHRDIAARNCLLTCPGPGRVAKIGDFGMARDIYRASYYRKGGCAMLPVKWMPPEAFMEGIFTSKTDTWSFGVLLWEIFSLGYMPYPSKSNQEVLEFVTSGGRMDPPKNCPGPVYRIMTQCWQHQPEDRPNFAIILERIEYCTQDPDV
T9 sequence (P08922 1883-2347 limits assumed): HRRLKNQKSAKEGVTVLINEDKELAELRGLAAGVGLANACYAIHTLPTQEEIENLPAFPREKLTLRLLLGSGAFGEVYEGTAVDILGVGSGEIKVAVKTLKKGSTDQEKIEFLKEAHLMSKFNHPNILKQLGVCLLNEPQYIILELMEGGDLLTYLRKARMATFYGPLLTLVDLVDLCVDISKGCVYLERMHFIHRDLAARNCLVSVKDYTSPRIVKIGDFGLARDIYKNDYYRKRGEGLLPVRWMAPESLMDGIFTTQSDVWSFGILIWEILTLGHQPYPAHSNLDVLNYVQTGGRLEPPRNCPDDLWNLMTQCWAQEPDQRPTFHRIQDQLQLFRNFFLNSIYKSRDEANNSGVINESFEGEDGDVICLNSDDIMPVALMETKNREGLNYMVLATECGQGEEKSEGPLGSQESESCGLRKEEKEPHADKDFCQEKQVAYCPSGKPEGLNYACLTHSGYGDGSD
T6 sequence (P04629 510-796 limits assumed): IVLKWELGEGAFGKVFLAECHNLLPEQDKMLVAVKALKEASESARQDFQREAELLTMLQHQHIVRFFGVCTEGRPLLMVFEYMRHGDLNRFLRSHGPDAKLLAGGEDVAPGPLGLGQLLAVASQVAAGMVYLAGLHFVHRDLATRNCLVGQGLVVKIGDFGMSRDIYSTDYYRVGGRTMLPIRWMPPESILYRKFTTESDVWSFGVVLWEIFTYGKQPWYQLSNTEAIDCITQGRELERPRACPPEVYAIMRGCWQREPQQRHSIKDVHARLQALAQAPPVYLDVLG
T2 sequence (P04629 510-781 limits assumed): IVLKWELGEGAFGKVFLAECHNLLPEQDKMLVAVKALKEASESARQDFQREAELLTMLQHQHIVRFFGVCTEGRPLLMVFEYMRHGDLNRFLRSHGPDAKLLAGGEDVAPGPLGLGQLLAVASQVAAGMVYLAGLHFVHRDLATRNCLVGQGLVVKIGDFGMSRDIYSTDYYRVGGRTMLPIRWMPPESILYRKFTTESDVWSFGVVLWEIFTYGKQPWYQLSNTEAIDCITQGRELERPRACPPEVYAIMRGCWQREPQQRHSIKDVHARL
T4 sequence (P08922 1883-2347 G2032R limits assumed): as the sequence (P08922 1883-2347 limits assumed) above, with G150R counted along it
T3 sequence (P08922 1945-2222 G2032R limits assumed): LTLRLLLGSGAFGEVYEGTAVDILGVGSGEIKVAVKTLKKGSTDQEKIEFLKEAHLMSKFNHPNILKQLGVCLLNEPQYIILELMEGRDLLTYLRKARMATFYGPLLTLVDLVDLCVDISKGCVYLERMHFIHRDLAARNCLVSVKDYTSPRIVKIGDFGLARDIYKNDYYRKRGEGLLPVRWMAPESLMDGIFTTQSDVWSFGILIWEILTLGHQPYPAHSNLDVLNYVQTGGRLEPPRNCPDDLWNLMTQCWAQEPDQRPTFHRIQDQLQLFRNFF
T10 sequence (Q9UM73 1116-1392 L1196M/G1202R limits assumed): as the sequence (Q9UM73 1116-1392 limits assumed) above, with L81M, G87R counted along it
T5 sequence (Q9UM73 with tags, fused parts or gaps): as the sequence (Q9UM73 with tags, fused parts or gaps L1196M/G1202R) above, with M635L, R641G counted along it
T8 sequence (P08922 1945-2222 limits assumed): as the sequence (P08922 1945-2222 G2032R limits assumed) above, with R88G counted along it

Broadly, the IC50 is the midpoint of a concentration-inhibition curve. In the case of `CCn1ncc2c1-c1cnc(N)c(c1)OC(C)c1cc(F)cnc1-c1ccnn1C2` (stereo not shown) [Example 37, 3-ethyl-16-fluoro-19-methyl-20-oxa-3,4,8,9,14,23-hexaazapentacyclo[19.3.1.0^2,^6.0^8,^12.0^13,^18]pentacosa-1(24),2(6),4,9,11,13,15,17,21(25),22-decaen-22-amine], the Ki in [1] was under 50 nM; in assay [2], over 500 nM; in assay [3], under 50 nM; in assay [8], under 50 nM; in [11], 50 to 500 nM. The IC50 is 0.1 to 50 nM in assay [4]; 0.1 to 50 nM in assay [5]; over 500 nM in assay [6]; 50 to 500 nM in assay [7]; 0.1 to 50 nM in assay [10]. Further, the TPM3-NTRK1-wt/CD74-ROS1-G2032R selectivity ratio entry in [9] was “A (bin A for very high selectivity, ratio >30-fold)”. Besides, the TPM3-NTRK1-wt/CD74-ROS1-wt selectivity ratio entry in assay [9] was “A (bin A for very high selectivity, ratio >30-fold)”. In addition, the TPM3-NTRK1-wt/EML4-ALK-L1196M-G1202R selectivity ratio entry in assay [9] is recorded as “B (bin B for high selectivity, ratio >10-fold)”. Besides, the TPM3-NTRK1-wt/EML4-ALK-wt selectivity ratio entry in [9] is recorded as “A (bin A for very high selectivity, ratio >30-fold)”.

Consider `CCc1noc2c1-c1cnc(N)c(c1)O[C@H](C)c1cc(F)ccc1-c1ncnn1C2` [Example 50, (19R)-3-ethyl-16-fluoro-19-methyl-5,20-dioxa-4,8,9,11,23-pentaazapentacyclo[19.3.1.0^2,^6.0^8,^12.0^13,^18]pentacosa-1(24),2(6),3,9,11,13,15,17,21(25),22-decaen-22-amine], for which the Ki in [1] is under 50 nM; in assay [2], 50 to 500 nM; in assay [3], 50 to 500 nM; in assay [8], under 50 nM; in [11] it was under 50 nM. For the same compound, the IC50 in assay [4] was 0.1 to 50 nM; in assay [5] it was 0.1 to 50 nM; in assay [6], over 500 nM; in assay [7], 50 to 500 nM; in assay [10], 0.1 to 50 nM. Besides, the TPM3-NTRK1-wt/CD74-ROS1-G2032R selectivity ratio entry in assay [9] is on record as “B (bin B for high selectivity, ratio >10-fold)”. Also, the TPM3-NTRK1-wt/CD74-ROS1-wt selectivity ratio result in [9] is given as “A (bin A for very high selectivity, ratio >30-fold)”. Further, the TPM3-NTRK1-wt/EML4-ALK-L1196M-G1202R selectivity ratio result in [9] is recorded as “C (bin C for moderate selectivity, ratio ≥1)”. Further, the TPM3-NTRK1-wt/EML4-ALK-wt selectivity ratio entry in assay [9] was “A (bin A for very high selectivity, ratio >30-fold)”.

For the compound `CCn1ncc2c1-c1cnc(N)c(c1)O[C@H](C)c1cc(F)ccc1-c1c(C#N)cnn1C2` [Example 3, (19R)-22-amino-3-ethyl-16-fluoro-19-methyl-20-oxa-3,4,8,9,23-pentaazapentacyclo[19.3.1.0^2,^6.08,^12.0^13,^18]pentacosa-1(24),2(6),4,9,11,13,15,17,21(25),22-decaene-11 carbonitrile], the Ki was under 50 nM in assay [1]; 50 to 500 nM in assay [2]; under 50 nM in assay [3]; under 50 nM in [8]; under 50 nM in assay [11]. Moreover, the IC50 in assay [4] is 0.1 to 50 nM; in assay [5], 0.1 to 50 nM; in assay [6], over 500 nM; in assay [7], 50 to 500 nM; in assay [10], 0.1 to 50 nM. In addition, the TPM3-NTRK1-wt/CD74-ROS1-G2032R selectivity ratio result in assay [9] is “A (bin A for very high selectivity, ratio >30-fold)”. For the same compound, in assay [9], the TPM3-NTRK1-wt/CD74-ROS1-wt selectivity ratio entry is listed as “A (bin A for very high selectivity, ratio >30-fold)”. Further, in assay [9], the TPM3-NTRK1-wt/EML4-ALK-L1196M-G1202R selectivity ratio entry was “C (bin C for moderate selectivity, ratio ≥1)”. For the same compound, the TPM3-NTRK1-wt/EML4-ALK-wt selectivity ratio result in [9] is “A (bin A for very high selectivity, ratio >30-fold)”.

Turning to `C[C@H]1Oc2cc(cnc2N)-c2c(cnn2C2CCC2)Cc2nn(C)nc2-c2ccc(F)cc21` [Example 13, (19R)-3-cyclobutyl-16-fluoro-10,19-dimethyl-20-oxa-3,4,9,10,11,23-hexaazapentacyclo[19.3.1.0^2,^6.0^8,^12.0^13,^18]pentacosa-1(24),2(6),4,8,11,13,15,17,21(25),22-decaen-22-amine], the Ki in assay [1] is under 50 nM; in assay [2] it was over 500 nM; in [3] it was under 50 nM; in [8], under 50 nM; in [11], under 50 nM. The IC50 in assay [4] was 0.1 to 50 nM; in [5] it was 0.1 to 50 nM; in [6] it was over 500 nM; in assay [7], 0.1 to 50 nM; in [10] it was 0.1 to 50 nM. For the same compound, the TPM3-NTRK1-wt/CD74-ROS1-G2032R selectivity ratio result in [9] is listed as “A (bin A for very high selectivity, ratio >30-fold)”. The TPM3-NTRK1-wt/CD74-ROS1-wt selectivity ratio result in assay [9] is “A (bin A for very high selectivity, ratio >30-fold)”. In addition, the TPM3-NTRK1-wt/EML4-ALK-L1196M-G1202R selectivity ratio result in assay [9] is “A (bin A for very high selectivity, ratio >30-fold)”. Besides, the TPM3-NTRK1-wt/EML4-ALK-wt selectivity ratio result in [9] is “A (bin A for very high selectivity, ratio >30-fold)”.

Turning to `CCn1ncc2c1-c1cnc(N)c(c1)O[C@H](C)c1cc(F)ccc1-c1cc(C)nn1C2` [Example 4, (19R)-3-ethyl-16-fluoro-10,19-dimethyl-20-oxa-3,4,8,9,23-pentaazapentacyclo[19.3.1.0^2,^6.0^8,^12.0^13,^18]pentacosa-1(24),2(6),4,9,11,13,15,1 7,21 (25),22-decaen-22-amine], the Ki is under 50 nM in [1]; 50 to 500 nM in [2]; under 50 nM in assay [3]; under 50 nM in [8]; under 50 nM in assay [11]. Further, the IC50 fell in the range of 0.1 to 50 nM in [4]; 0.1 to 50 nM in assay [5]; 50 to 500 nM in [6]; 50 to 500 nM in assay [7]; 0.1 to 50 nM in assay [10]. For the same compound, the TPM3-NTRK1-wt/CD74-ROS1-G2032R selectivity ratio result in [9] was “A (bin A for very high selectivity, ratio >30-fold)”. For the same compound, the TPM3-NTRK1-wt/CD74-ROS1-wt selectivity ratio entry in [9] was “A (bin A for very high selectivity, ratio >30-fold)”. Also, the TPM3-NTRK1-wt/EML4-ALK-L1196M-G1202R selectivity ratio entry in assay [9] is “C (bin C for moderate selectivity, ratio ≥1)”. Besides, the TPM3-NTRK1-wt/EML4-ALK-wt selectivity ratio result in assay [9] is recorded as “B (bin B for high selectivity, ratio >10-fold)”.

The record behind these values is patent US12054498B2, “Heteroaromatic macrocyclic ether chemotherapeutic agents” (Nuvalent, Inc., priority 2020, dated 2024).
